Calls of active or inactive are those of the source. No cut-off for these calls is given here.
Key:
[1] = system: Mus musculus; experiment: Neurotoxicity in ip dosed albino CF1 mouse assessed as minimum dose required to cause toxicity after 0.5 hrs by rotarod test; assay type: organism-based; conditions: in vivo
[2] = system: Mus musculus; experiment: Anticonvulsant activity in albino CF1 mouse assessed as protection against maximal electroshock-induced seizures at 3 mg/kg, ip after 0.5 hrs; assay type: functional, organism-based; parameters: dose 3 mg/kg
[3] = system: Mus musculus; experiment: Neurotoxicity in albino CF1 mouse assessed as minimal motor impairment at 30 mg/kg, ip after 0.5 hrs by rotarod test; assay type: toxicity, organism-based; parameters: dose 30 mg/kg, route intraperitoneal; conditions: in vivo
[4] = system: Mus musculus; experiment: Anticonvulsant activity against subcutaneous metrazole-induced seizures in ip dosed albino CF1 mouse assessed as minimum effective dose after 4 hrs; assay type: functional; conditions: albino CF1, 4 h, read-out: MED
[5] = system: Mus musculus; experiment: Anticonvulsant activity in albino CF1 mouse assessed as protection against maximal electroshock-induced seizures at 10 mg/kg, ip after 0.5 hrs; assay type: functional, organism-based; parameters: dose 10 mg/kg
[6] = system: Mus musculus; experiment: Neurotoxicity in albino CF1 mouse assessed as minimal motor impairment at 3 mg/kg, ip after 0.5 hrs by rotarod test; assay type: toxicity, organism-based; parameters: dose 3 mg/kg, route intraperitoneal; conditions: in vivo
[7] = system: Mus musculus; experiment: Neurotoxicity in albino CF1 mouse assessed as minimal motor impairment at 10 mg/kg, ip after 0.5 hrs by rotarod test; assay type: toxicity, organism-based; parameters: dose 10 mg/kg, route intraperitoneal; conditions: in vivo
[8] = system: Mus musculus; experiment: Neurotoxicity in albino CF1 mouse assessed as minimal motor impairment at 30 mg/kg, ip after 4 hrs by rotarod test; assay type: toxicity, organism-based; parameters: dose 30 mg/kg, route intraperitoneal; conditions: in vivo
[9] = system: Mus musculus; experiment: Neurotoxicity in albino CF1 mouse assessed as minimal motor impairment at 100 mg/kg, ip after 4 hrs by rotarod test; assay type: toxicity, organism-based; parameters: dose 100 mg/kg, route intraperitoneal; conditions: in vivo
[10] = system: Mus musculus; experiment: Anticonvulsant activity in albino CF1 mouse assessed as protection against maximal electroshock-induced seizures at 300 mg/kg, ip after 0.5 hrs; assay type: functional, organism-based; parameters: dose 300 mg/kg
[11] = system: Mus musculus; experiment: Anticonvulsant activity in albino CF1 mouse assessed as protection against maximal electroshock-induced seizures at 300 mg/kg, ip after 4 hrs; assay type: functional, organism-based; parameters: dose 300 mg/kg
[12] = system: Mus musculus; experiment: Anticonvulsant activity in albino CF1 mouse assessed as protection against subcutaneous metrazole-induced seizures at 30 mg/kg, ip after 0.5 hrs; assay type: functional, organism-based; parameters: dose 30 mg/kg
[13] = system: Mus musculus; experiment: Anticonvulsant activity in albino CF1 mouse assessed as protection against subcutaneous metrazole-induced seizures at 30 mg/kg, ip after 4 hrs; assay type: functional, organism-based; parameters: dose 30 mg/kg
[14] = system: Mus musculus; experiment: Anticonvulsant activity in albino CF1 mouse assessed as protection against subcutaneous metrazole-induced seizures at 100 mg/kg, ip after 0.5 hrs; assay type: functional, organism-based; parameters: dose 100 mg/kg
[15] = system: Mus musculus; experiment: Anticonvulsant activity in albino CF1 mouse assessed as protection against subcutaneous metrazole-induced seizures at 100 mg/kg, ip after 4 hrs; assay type: functional, organism-based; parameters: dose 100 mg/kg
[16] = system: Mus musculus; experiment: Anticonvulsant activity in albino CF1 mouse assessed as protection against subcutaneous metrazole-induced seizures at 300 mg/kg, ip after 0.5 hrs; assay type: functional, organism-based; parameters: dose 300 mg/kg
[17] = system: Mus musculus; experiment: Anticonvulsant activity in albino CF1 mouse assessed as protection against subcutaneous metrazole-induced seizures at 300 mg/kg, ip after 4 hrs; assay type: functional, organism-based; parameters: dose 300 mg/kg
[18] = system: Mus musculus; experiment: Anticonvulsant activity in albino CF1 mouse assessed as protection against maximal electroshock-induced seizures at 30 mg/kg, ip after 0.5 hrs; assay type: functional, organism-based; parameters: dose 30 mg/kg
[19] = system: Mus musculus; experiment: Anticonvulsant activity in albino CF1 mouse assessed as protection against maximal electroshock-induced seizures at 30 mg/kg, ip after 4 hrs; assay type: functional, organism-based; parameters: dose 30 mg/kg
[20] = system: Mus musculus; experiment: Neurotoxicity in ip dosed albino CF1 mouse assessed as minimum dose required to cause toxicity after 4 hrs by rotarod test; assay type: organism-based; conditions: in vivo
[21] = system: Mus musculus; experiment: Anticonvulsant activity against maximal electroshock-induced seizures in ip dosed albino CF1 mouse assessed as minimum effective dose after 0.5 hrs; assay type: functional; conditions: read-out: MED
[22] = system: Mus musculus; experiment: Anticonvulsant activity against maximal electroshock-induced seizures in ip dosed albino CF1 mouse assessed as minimum effective dose after 4 hrs; assay type: functional; conditions: read-out: MED
[23] = system: Mus musculus; experiment: Anticonvulsant activity against subcutaneous metrazole-induced seizures in ip dosed albino CF1 mouse assessed as minimum effective dose after 0.5 hrs; assay type: functional; conditions: albino CF1, 0.5 h, read-out: MED
[24] = system: Mus musculus; experiment: Neurotoxicity in albino CF1 mouse assessed as minimal motor impairment at 30 to 300 mg/kg, ip after 4 hrs by rotarod test; conditions: in vivo
[25] = system: Mus musculus; experiment: Neurotoxicity in albino CF1 mouse assessed as minimal motor impairment at 30 to 300 mg/kg, ip after 0.5 hrs by rotarod test; conditions: in vivo

FC(F)(F)c1cccc(-c2c[nH]c(-c3ccccc3)n2)c1
MED [1]: 100 mg/kg
Activity [2]: inactive
Activity [3]: Non-toxic
minimal effective dose [4]: > 300 mg/kg
Activity [5]: inactive
Activity [6]: Non-toxic
Activity [7]: Non-toxic
Activity [8]: Non-toxic
Activity [9]: Non-toxic
Activity [10]: Active
Activity [11]: Active
Activity [12]: inactive
Activity [13]: inactive
Activity [14]: inactive
Activity [15]: inactive
Activity [16]: inactive
Activity [17]: inactive
Activity [18]: Active
Activity [19]: inactive
MED [20]: 100 mg/kg
minimal effective dose [21]: > 30 mg/kg
minimal effective dose [22]: 100 mg/kg
minimal effective dose [23]: > 300 mg/kg
Activity [24]: Non-toxic
Activity [25]: Non-toxic

— ChEMBL document CHEMBL1275354, “Anticonvulsant activity of 2,4(1H)-diarylimidazoles in mice and rats acute seizure models” (Bioorg Med Chem, 2010)
